Measurements as given in patent US8999375B2, “Compositions including pyruvate for companion animals and methods of use thereof” (Hill's Pet Nutrition, Inc., priority 2009, dated 2015).

Tested on: arthritic and normal cats
Assay: Feline arthritis biomarker measurements in arthritic and normal cats
Type: in vivo
Conditions: 1% by weight in diet, 28 days
Procedure: Calcium pyruvate was tested in arthritic and normal cats to determine efficacy in reducing cartilage damage and inflammatory markers. Ten normal and ten arthritis cats were fed the feline control diet enhanced with 1% by weight calcium pyruvate for 28 days. Analysis was performed on natural log transformed values. Means and SED are antilog values of log transformed data.

calcium pyruvate
concentration of serum HMGB1 (in words): reduced | concentration of serum IL-1 beta (in words): reduced | marker of bone formation, BAP (in words): improved
